Experiments:
sunburn = assay: Ultraviolet rays prevention effect test on a beach (lotion and cream samples); format: in vivo, human
Procedure: The prevention effect test was carried out on a beach during the summer. Equal amounts of sample were applied to the right and left sides of the backs of test subjects. After direct sunlight exposure, the degree of sunburn was evaluated in accordance with the following criteria. Each group consisted of 20 subjects. (Criterion) Remarkable effect: None or almost no sunburn symptom was found. Positive effect: Slight sunburn symptom was found. Negative effect: Strong sunburn symptom was found. (Evaluation) A: Subject of remarkable effect or positive effect is 80% or more. B: Subject of remarkable effect or positive effect is 50% or more and less than 80%. C: Subject of remarkable effect or positive effect is 30% or more and less than 50%. D: Subject of remarkable effect or positive effect is less than 30% (ii) Preparation of sample (A) Lotion [table] Each of water phase and alcohol phase was prepared. Then each was mixed. (B) Cream [table] The propylene glycol was added to ion-exchanged water and was dissolved, which was kept at 70° C. by heating (Water phase). The other components were mixed and melted by heating and was kept at 70° C. (Oil phase). The oil phase was added to the water phase, and an emulsion was formed.. After it was homogeneously emulsified with a homogenixer, it was cooled at 30° C. with stirring well.

[1] = Drug stabilization effect (sequestering agent combination); parameters: key to Sunlight exposure (80 MJ) Appearance: A: No change; B: No almost change; C: Yes change; conditions: for Sunlight exposure (80 MJ) Appearance / Sunlight exposure (80 MJ) Residual yield [%]: amounts wt %
Procedure: Next, when combined with a sequestering agent, the photostabilization effect and appearance change of a composition for each drug was studied by the following evaluation formulation.
Each test sample was prepared. Appearance change of the samples exposed to sunlight (around 80 MJ) was observed (visual evaluation). Also, residual yield of a drug was measured by liquid chromatography.

[2] = Perfume stabilization effect (photostabilizer, sunlight exposure, judgement by perfumier); parameters: key to Sunlight exposure (80 MJ) Smell evaluation / Sunlight exposure (80 MJ) evaluation: A: No change; B: No almost change; C: Yes change
Procedure: Next, the photostabilization effect for each perfume was studied by the following evaluation formulation.
Each test sample was prepared. Change of smell of sample exposed to sunlight (80 MJ) was observed (judgement by perfumier).

[3] = drug 2-o-α-α-glucopyranosyl-L-ascorbic acid 2.0, photostabilizer 0.03 + Sodium metaphosphate 0.03
[4] = drug 2-o-α-α-glucopyranosyl-L-ascorbic acid 2.0, photostabilizer 0.03, no sequestering agent
[5] = drug Dibutylhydroxytoluene 0.01, photostabilizer 0.03 + Sodium metaphosphate 0.03
[6] = drug Dibutylhydroxytoluene 0.01, photostabilizer 0.03, no sequestering agent
[7] = drug Dipotassium glycyrrhizinate 0.05, photostabilizer 0.03 + Sodium metaphosphate 0.03
[8] = drug Dipotassium glycyrrhizinate 0.05, photostabilizer 0.03, no sequestering agent
[9] = drug L-ascorbic acid 2-(dl-α-tocopheryl hydrogen phosphate) potassium salt 0.01, photostabilizer 0.03 + Trisodium hydroxyethyl ethylenediamine triacetate 0.03
[10] = drug L-ascorbic acid 2-(dl-α-tocopheryl hydrogen phosphate) potassium salt 0.01, photostabilizer 0.03, no sequestering agent
[11] = drug Salicylic acid 0.1, photostabilizer 0.03 + Trisodium ethylenediamine tetraacetate 0.03
[12] = drug Salicylic acid 0.1, photostabilizer 0.03, no sequestering agent

Oc1nncc(N2CCOCC2)c1N1CCOCC1 [4,5-Dimorpholino-3-hydroxypyridazine]
UV prevent effect (sunburn; Cream, ultraviolet absorbent 0.0005 wt %): C (Subject of remarkable effect or positive effect is 30% or more and less than 50%.)
UV prevent effect (sunburn; Cream, ultraviolet absorbent 0.001 wt %): B (Subject of remarkable effect or positive effect is 50% or more and less than 80%.)
UV prevent effect (sunburn; Cream, ultraviolet absorbent 0.1 wt %): A (Subject of remarkable effect or positive effect is 80% or more.)
UV prevent effect (sunburn; Cream, ultraviolet absorbent 1 wt %): A (Subject of remarkable effect or positive effect is 80% or more.)
UV prevent effect (sunburn; Cream, ultraviolet absorbent 5 wt %): A (Subject of remarkable effect or positive effect is 80% or more.)
UV prevent effect (sunburn; Cream, ultraviolet absorbent 10 wt %): A (Subject of remarkable effect or positive effect is 80% or more.)
UV prevent effect (sunburn; Cream, ultraviolet absorbent 20 wt %): A (Subject of remarkable effect or positive effect is 80% or more.)
UV prevent effect (sunburn; Lotion, ultraviolet absorbent 0.0005 wt %): C (Subject of remarkable effect or positive effect is 30% or more and less than 50%.)
UV prevent effect (sunburn; Lotion, ultraviolet absorbent 0.001 wt %): B (Subject of remarkable effect or positive effect is 50% or more and less than 80%.)
UV prevent effect (sunburn; Lotion, ultraviolet absorbent 0.01 wt %): A (Subject of remarkable effect or positive effect is 80% or more.)
UV prevent effect (sunburn; Lotion, ultraviolet absorbent 1 wt %): A (Subject of remarkable effect or positive effect is 80% or more.)
UV prevent effect (sunburn; Lotion, ultraviolet absorbent 5 wt %): A (Subject of remarkable effect or positive effect is 80% or more.)
UV prevent effect (sunburn; Lotion, ultraviolet absorbent 10 wt %): A (Subject of remarkable effect or positive effect is 80% or more.)
UV prevent effect (sunburn; Lotion, ultraviolet absorbent 20 wt %): A (Subject of remarkable effect or positive effect is 80% or more.)
Sunlight exposure (80 MJ) Appearance [1, 3]: A
Sunlight exposure (80 MJ) Residual yield [%] [1, 3]: 99.3%
Sunlight exposure (80 MJ) Appearance [1, 4]: A
Sunlight exposure (80 MJ) Residual yield [%] [1, 4]: 98.3%
Sunlight exposure (80 MJ) Appearance [1, 5]: A
Sunlight exposure (80 MJ) Residual yield [%] [1, 5]: 98.8%
Sunlight exposure (80 MJ) Appearance [1, 6]: B
Sunlight exposure (80 MJ) Residual yield [%] [1, 6]: 95.8%
Sunlight exposure (80 MJ) Appearance [1, 7]: A
Sunlight exposure (80 MJ) Residual yield [%] [1, 7]: 100.0%
Sunlight exposure (80 MJ) Appearance [1, 8]: A
Sunlight exposure (80 MJ) Residual yield [%] [1, 8]: 97.2%
Sunlight exposure (80 MJ) Appearance [1, 9]: A
Sunlight exposure (80 MJ) Residual yield [%] [1, 9]: 99.4%
Sunlight exposure (80 MJ) Appearance [1, 10]: B
Sunlight exposure (80 MJ) Residual yield [%] [1, 10]: 98.5%
Sunlight exposure (80 MJ) Appearance [1, 11]: A
Sunlight exposure (80 MJ) Residual yield [%] [1, 11]: 100.1%
Sunlight exposure (80 MJ) Appearance [1, 12]: B
Sunlight exposure (80 MJ) Residual yield [%] [1, 12]: 99.2%
residual yield of a drug ([1]; with a sequestering agent, compared with compositions without, Table 30): very small
Sunlight exposure (80 MJ) Smell evaluation ([2]; Base perfume Aldehyde 0.03 wt %, photostabilizer 0.2 wt %): A
Sunlight exposure (80 MJ) Smell evaluation ([2]; Base perfume Animal 0.03 wt %, photostabilizer 0.3 wt %): A
Sunlight exposure (80 MJ) Smell evaluation ([2]; Base perfume Chypre 0.03 wt %, photostabilizer 0.01 wt %): A
Sunlight exposure (80 MJ) Smell evaluation ([2]; Base perfume Citrus 0.03 wt %, photostabilizer 0.03 wt %): A
Sunlight exposure (80 MJ) Smell evaluation ([2]; Base perfume Fougere 0.03 wt %, photostabilizer 0.1 wt %): A
Sunlight exposure (80 MJ) Smell evaluation ([2]; Base perfume Fruity 0.03 wt %, photostabilizer 0.1 wt %): A
Sunlight exposure (80 MJ) Smell evaluation ([2]; Base perfume Green 0.03 wt %, photostabilizer 0.05 wt %): A
Sunlight exposure (80 MJ) Smell evaluation ([2]; Base perfume Jasmine 0.03 wt %, photostabilizer 0.01 wt %): A
Sunlight exposure (80 MJ) Smell evaluation ([2]; Base perfume Muguet 0.03 wt %, photostabilizer 0.05 wt %): A
Sunlight exposure (80 MJ) Smell evaluation ([2]; Base perfume Oriental 0.03 wt %, photostabilizer 0.1 wt %): A
Sunlight exposure (80 MJ) Smell evaluation ([2]; Base perfume Rose 0.03 wt %, photostabilizer 0.05 wt %): A
Sunlight exposure (80 MJ) Smell evaluation ([2]; Base perfume Spicy 0.03 wt %, photostabilizer 0.2 wt %): A
Sunlight exposure (80 MJ) Smell evaluation ([2]; Base perfume Woody 0.03 wt %, photostabilizer 0.1 wt %): A
Sunlight exposure (80 MJ) Smell evaluation ([2]; Natural perfume Jasmine oil 0.03 wt %, photostabilizer 0.05 wt %): A
Sunlight exposure (80 MJ) Smell evaluation ([2]; Natural perfume Lavender oil 0.03 wt %, photostabilizer 0.1 wt %): A
Sunlight exposure (80 MJ) Smell evaluation ([2]; Natural perfume Neroli oil 0.03 wt %, photostabilizer 0.1 wt %): A
Sunlight exposure (80 MJ) Smell evaluation ([2]; Natural perfume Rose oil 0.03 wt %, photostabilizer 0.05 wt %): A
Sunlight exposure (80 MJ) Smell evaluation ([2]; Natural perfume Ylang ylang oil 0.03 wt %, photostabilizer 0.2 wt %): A
Sunlight exposure (80 MJ) Smell evaluation ([2]; Synthetic perfume Citral 0.03 wt %, photostabilizer 0.1 wt %): A
Sunlight exposure (80 MJ) Smell evaluation ([2]; Synthetic perfume Limonene 0.03 wt %, photostabilizer 0.05 wt %): A

Reference: patent publication US6395896B2, “Pyridazine derivatives, manufacturing method and related composition” (Shiseido Co., Ltd., priority 1999, dated 2002)
